Patent US20260015360A1 (MOMA Therapeutics, Inc., priority 2023, published 2026)
Where two headings read alike, the source gives them in different places.

Assays:
DLD1 BRCA2 (−/−) cells = assay: DLD1 viability assay (CellTiter-Glo, 7 days), DLD1 BRCA2 (−/−); assay type: cell-based; settings: read-out: Viability IC50 (μM) DLD1 BRCA2 null
Protocol: (§1) The seeding densities are pre-determined from the growth curve kinetics performed to ensure log linear phase of cell growth for these 2 cell lines. These assay plates are then placed in the incubator at 37° C., 5% CO2, relative humidity>90% for a few hours before addition of test compounds. Compounds are dispensed using the Tecan HPD300 or Echo based on the plate map in the appropriate wells of the 384-well plates. […] After addition of the test compounds, the plates are incubated at 37° C., 5% CO2, relative humidity>90% for 7 days. CellTiter-Glo (Promega Cat. No. G7573), ATP detection reagent is prepared according to manufacturer's specifications. Cell assay plates are removed from incubator and bring to room temperature (RT) by letting them sit at bench top for at least 15 min. Using the MultiDrop liquid handler or a multichannel pipette, 35 μL/well of CTG is added and the plates are then placed shakes for 5 seconds, RT. These plates are then incubated for 30 minutes in the dark at RT before measuring luminescence using Spectramax/Enspire/Ensight/Envision/PheraSTAR.

DLD1 WT cells = assay: DLD1 viability assay (CellTiter-Glo, 7 days), DLD1 WT; assay type: cell-based; settings: Homo sapiens, DLD-1, 168 h
Protocol: as §1

| Structure (SMILES) | IC50 (DLD1 BRCA2 (−/−) cells; Homo sapiens, DLD-1, 168 h) [µM] | IC50 (DLD1 WT cells) [µM] | IC50 (DLD1 BRCA2 (−/−) cells) [µM] |
| --- | --- | --- | --- |
| COc1cnc(Cl)cc1-c1cc(C)ncc1C(=O)Nc1nc2ncc(N3CCC(C4CC4)CC3)nc2s1 [Example 466, 2′-chloro-N-(6-(4-cyclopropylpiperidin-1-yl)thiazolo[4,5-b]pyrazin-2-yl)-5′-methoxy-6-methyl-[4,4′-bipyridine]-3-carboxamide] | 0.001 to 0.1 | 7.5 to 10 | – |
| COc1cnc(Cl)cc1-c1cc(C)ncc1C(=O)Nc1nc2ncc(N3CCC(O)C(F)(F)C3)nc2s1 (single isomer, unassigned) [Example 457, (S or R)-2′-chloro-N-(6-(3,3-difluoro-4-hydroxypiperidin-1-yl)thiazolo[4,5-b]pyrazin-2-yl)-5′-methoxy-6-methyl-[4,4′-bipyridine]-3-carboxamide] | – | > 10 | 0.1 to 0.25 |
| COc1cnc(Cl)cc1-c1cc(C)ncc1C(=O)Nc1nc2ncc([C@H]3CCN(CC(F)(F)F)C3)nc2s1 (single isomer, unassigned) [Example 364, (S or R)-2′-chloro-5′-methoxy-6-methyl-N-(6-(1-(2,2,2-trifluoroethyl)pyrrolidin-3-yl)thiazolo[4,5-b]pyrazin-2-yl)-[4,4′-bipyridine]-3-carboxamide] | 0.1 to 0.25 | > 10 | – |
| COc1cnc(Cl)cc1-c1cc(C)ncc1C(=O)Nc1nc2ncc([C@@H]3CCO[C@@H](C)C3)nc2s1 [Example 433, 2′-chloro-5′-methoxy-6-methyl-N-(6-((2S,4R)-2-methyltetrahydro-2H-pyran-4-yl)thiazolo[4,5-b]pyrazin-2-yl)-[4,4′-bipyridine]-3-carboxamide] | 0.001 to 0.1 | > 10 | – |
| COc1ccc(C#N)cc1-c1cc(C)ncc1C(=O)Nc1nc2ncc(C3=CCC(CO)CC3)nc2s1 (stereo not drawn) [Example 421, 4-(5-cyano-2-methoxyphenyl)-N-(6-(4-(hydroxymethyl)cyclohex-1-en-1-yl)thiazolo[4,5-b]pyrazin-2-yl)-6-methylnicotinamide] | 0.001 to 0.1 | > 10 | – |
| COc1cnc(Cl)cc1-c1cc(C)ncc1C(=O)Nc1nc2ncc(N3CCC4(CCO4)CC3)nc2s1 [Example 482, N-(6-(1-oxa-7-azaspiro[3.5]nonan-7-yl)thiazolo[4,5-b]pyrazin-2-yl)-2′-chloro-5′-methoxy-6-methyl-[4,4′-bipyridine]-3-carboxamide] | 0.001 to 0.1 | > 10 | – |
| COc1cnc(Cl)cc1-c1cc(C)ncc1C(=O)Nc1nc2ncc(N3CC[C@H](OC)C(F)(F)C3)nc2s1 (single isomer, unassigned) [Example 441, (S or R)-2′-chloro-N-(6-(3,3-difluoro-4-methoxypiperidin-1-yl)thiazolo[4,5-b]pyrazin-2-yl)-5′-methoxy-6-methyl-[4,4′-bipyridine]-3-carboxamide] | 0.001 to 0.1 | 0.001 to 2.5 | – |
| COc1cnc(Cl)cc1-c1cc(C)ncc1C(=O)Nc1nc2ncc(C3=CCC(OC(F)F)CC3)nc2s1 (stereo not drawn) [Example 405, 2′-chloro-N-(6-(4-(difluoromethoxy)cyclohex-1-en-1-yl)thiazolo[4,5-b]pyrazin-2-yl)-5′-methoxy-6-methyl-[4,4′-bipyridine]-3-carboxamide] | 0.001 to 0.1 | > 10 | – |
| COc1cnc(Cl)cc1-c1cc(C)ncc1C(=O)Nc1nc2ncc([C@H]3CCO[C@H](C)C3)nc2s1 (single isomer, unassigned) [Example 431, 2′-chloro-5′-methoxy-6-methyl-N-(6-((2R or S,4S or R)-2-methyltetrahydro-2H-pyran-4-yl)thiazolo[4,5-b]pyrazin-2-yl)-[4,4′-bipyridine]-3-carboxamide] | 0.001 to 0.1 | > 10 | – |
| COc1cnc(Cl)cc1-c1cc(C)ncc1C(=O)Nc1nc2ncc(N3CCC[C@@H](C)C3)nc2s1 [Example 485, (R)-2′-chloro-5′-methoxy-6-methyl-N-(6-(3-methylpiperidin-1-yl)thiazolo[4,5-b]pyrazin-2-yl)-[4,4′-bipyridine]-3-carboxamide] | 0.1 to 0.25 | > 10 | – |
| COc1cnc(Cl)cc1-c1cc(C)ncc1C(=O)Nc1nc2ncc(N3CCOC4CCCC43)nc2s1 (stereo not drawn) [Example 424, 2′-chloro-N-(6-(hexahydrocyclopenta[b][1, 4]oxazin-4(4aH)-yl)thiazolo[4,5-b]pyrazin-2-yl)-5′-methoxy-6-methyl-[4,4′-bipyridine]-3-carboxamide] | 0.001 to 0.1 | > 10 | – |
| COc1cnc(Cl)cc1-c1cc(C)ncc1C(=O)Nc1nc2ncc(N3C[C@H](C)OC[C@@H]3C)nc2s1 [Example 412, 2′-chloro-N-(6-((2S,5S)-2,5-dimethylmorpholino)thiazolo [4,5-b]pyrazin-2-yl)-5′-methoxy-6-methyl-[4,4′-bipyridine]-3-carboxamide] | 0.001 to 0.1 | > 10 | – |
| COc1cnc(Cl)cc1-c1cc(C)ncc1C(=O)Nc1nc2ncc(N3CCO[C@H](C)[C@@H]3C)nc2s1 (single isomer, unassigned) [Example 400, 2′-chloro-N-(6-((2R or S,3S or R)-2,3-dimethylmorpholino)thiazolo [4,5-b]pyrazin-2-yl)-5′-methoxy-6-methyl-[4,4′-bipyridine]-3-carboxamide] | 0.001 to 0.1 | > 10 | – |
| COc1nnc(C(F)F)cc1-c1cc(C)ncc1C(=O)Nc1nc2ncc(-c3ccnc(C)c3)nc2s1 [Example 384, 4-(6-(difluoromethyl)-3-methoxypyridazin-4-yl)-6-methyl-N-(6-(2-methylpyridin-4-yl)thiazolo[4,5-b]pyrazin-2-yl)nicotinamide] | 0.1 to 0.25 | > 10 | – |
| COc1ccccc1-c1cc(C)ncc1C(=O)Nc1nc2ccc(N3CCCCC3)cc2s1 [Example 91, 4-(2-Methoxyphenyl)-6-methyl-N-(6-(piperidin-1-yl)benzo[d]thiazol-2-yl)nicotinamide] | 0.5 to 2 | 7.5 to 10 | – |
| COc1cnc(Cl)cc1-c1cc(C)ncc1C(=O)Nc1nc2ncc(N3CCC(C(C)(C)O)CC3)nc2s1 [Example 480, 2′-chloro-N-(6-(4-(2-hydroxypropan-2-yl)piperidin-1-yl)thiazolo[4,5-b]pyrazin-2-yl)-5′-methoxy-6-methyl-[4,4′-bipyridine]-3-carboxamide] | 0.001 to 0.1 | > 10 | – |
| COc1cnc(Cl)cc1-c1cc(C)ncc1C(=O)Nc1nc2ncc(C3=CCC(OC(F)(F)F)CC3)nc2s1 (stereo not drawn) [Example 420, 2′-chloro-5′-methoxy-6-methyl-N-(6-(4-(trifluoromethoxy)cyclohex-1-en-1-yl)thiazolo[4,5-b]pyrazin-2-yl)-[4,4′-bipyridine]-3-carboxamide] | 0.001 to 0.1 | 7.5 to 10 | – |
| COc1cnc(Cl)cc1-c1cc(C)ncc1C(=O)Nc1nc2ncc(N3CCO[C@H](C(F)(F)F)C3)nc2s1 [Example 430, (S)-2′-chloro-5′-methoxy-6-methyl-N-(6-(2-(trifluoromethyl)morpholino)thiazolo[4,5-b]pyrazin-2-yl)-[4,4′-bipyridine]-3-carboxamide] | 0.001 to 0.1 | > 10 | – |
| COc1cnc(Cl)cc1-c1cc(C)ncc1C(=O)Nc1nc2ncc(N3CCC(C(F)F)CC3)nc2s1 [Example 486, 2′-chloro-N-(6-(4-(difluoromethyl)piperidin-1-yl)thiazolo[4,5-b]pyrazin-2-yl)-5′-methoxy-6-methyl-[4,4′-bipyridine]-3-carboxamide] | 0.001 to 0.1 | > 10 | – |
| COc1cnc(Cl)cc1-c1cc(C)ncc1C(=O)Nc1nc2ncc(C3=CCC(O)(C(F)(F)F)CC3)nc2s1 (single isomer, unassigned) [Example 413, 2′-chloro-N-(6-(4-hydroxy-4-(trifluoromethyl)cyclohex-1-en-1-yl)thiazolo[4,5-b]pyrazin-2-yl)-5′-methoxy-6-methyl-[4,4′-bipyridine]-3-carboxamide] | 0.001 to 0.1 | > 10 | – |
| COc1cnc(Cl)cc1-c1cc(C)ncc1C(=O)Nc1nc2ncc(N3CCC(C)CC3)nc2s1 [Example 474, 2′-chloro-5′-methoxy-6-methyl-N-(6-(4-methylpiperidin-1-yl)thiazolo[4,5-b]pyrazin-2-yl)-[4,4′-bipyridine]-3-carboxamide] | 0.001 to 0.1 | 7.5 to 10 | – |
| COc1cnc(Cl)cc1-c1cc(C)ncc1C(=O)Nc1nc2ncc(N3CCC(C)(O)C(F)C3)nc2s1 (stereo not drawn) [Example 465, 2′-chloro-N-(6-(3-fluoro-4-hydroxy-4-methylpiperidin-1-yl)thiazolo[4,5-b]pyrazin-2-yl)-5′-methoxy-6-methyl-[4,4′-bipyridine]-3-carboxamide] | 0.001 to 0.1 | > 10 | – |
| COc1cnc(Cl)cc1-c1cc(C)ncc1C(=O)Nc1nc2ncc(N3CCOC(C(F)F)C3)nc2s1 (stereo not drawn) [Example 429, 2′-chloro-N-(6-(2-(difluoromethyl)morpholino)thiazolo[4,5-b]pyrazin-2-yl)-5′-methoxy-6-methyl-[4,4′-bipyridine]-3-carboxamide] | 0.001 to 0.1 | > 10 | – |
| COc1cnc(Cl)cc1-c1cc(C)ncc1C(=O)Nc1nc2ncc(C3CN(CC(F)(F)F)C3)nc2s1 (single isomer, unassigned) [Example 378, 2′-chloro-5′-methoxy-6-methyl-N-(6-(1-(2,2,2-trifluoroethyl)azetidin-3-yl)thiazolo[4,5-b]pyrazin-2-yl)-[4,4′-bipyridine]-3-carboxamide] | 0.001 to 0.1 | > 10 | – |
